According to patent US6362369B1, “Phthalic acid diamide derivatives fluorine-containing aniline compounds as starting material, agricultural and horticultural insecticides, and a method for application of the insecticides” (Nihon Nohyaku Co., Ltd., priority 1997, dated 2002):

Experiments:
[1] = tested on: diamondback moth (Plutella xylostella); assay: Insecticidal effect on diamondback moth (Test Example 1); type: in vivo; conditions: diamondback moth; judged by the mortality criterion of Test Example 1
How it was run: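 Triplicate groups of 10 insects were scored: six days after immersion of oviposited Chinese cabbage seedlings and holding at 25 °C post air-drying, hatched larvae were counted. Mortality derived from these counts and insecticidal effect judged by a set criterion.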

[2] = tested on: rice leafroller (Cnaphalocrocis medinalis); assay: Insecticidal effect on rice leafroller (Test Example 3); type: in vivo; conditions: 500 ppm, 25° C., humidity 70%; for Insecticidal effect, Test Example 3: rice lamina immersed; for Insecticidal effect, Test Example 3 / Insecticidal effect on rice leafroller (Test Example 3), judged grade: four days after inoculation; for Insecticidal effect on rice leafroller (Test Example 3), judged grade / Insecticidal effect (Test Example 3), judged from mortality: rice lamina dip; for Insecticidal effect on rice leafroller (Test Example 3), judged grade: third-instar larvae; for Insecticidal effect (Test Example 3), judged from mortality: 4 days after inoculation
Method: Insecticidal effect on rice leafroller (Cnaphalocrocis medinalis)
After air-drying, the lamina was placed in a plastic Petri dish with a diameter of 9 cm whose bottom had been covered with a wetted filter paper. The lamina was inoculated with third-instar larvae of rice leafroller, after which the dish was allowed to stand in a room thermostated at 25° C. and having a humidity of 70%. Four days after the inoculation, the dead and alive were counted and the insecticidal effect was judged according to the criterion shown in Test Example 1. The test was carried out with triplicate groups of 10 insects.

[3] = third-instar larvae of rice leafroller
[4] = rice leafroller third-instar larvae

SMILES	Insecticidal effect, Test Example 1 [1]	Insecticidal effect, Test Example 3 [2, 3]	Insecticidal effect, Test Example 3 [2, 4]	also measured
CC(C)NC(=O)c1cccc(Br)c1C(=O)Nc1ccc(OC(F)(F)F)cc1 [Compound No. 302, 6-bromo-N^1-(4-trifluoromethoxyphenyl)-N^2-isopropylphthalic acid diamide]	A (100)	D (79-50)		
CNC(=O)c1c(C(=O)Nc2ccc(OC(F)F)cc2C)cccc1[N+](=O)[O-] [compound 4]	A (100)	D (79-50)		
CCNC(=O)c1cccc(Cl)c1C(=O)Nc1ccc(OC(F)F)cc1C [compound 9]	A (100)	A (100)		
CCN(CC)C(=O)c1c(C(=O)Nc2cc(Cl)ccc2C)cccc1[N+](=O)[O-] [compound 13]	D (79-50)	D (79-50)		
CCCNC(=O)c1c(Cl)cccc1C(=O)Nc1ccc(OC(F)F)cc1C [compound 15]	A (100)	A (100)		
CCCNC(=O)c1c(C(=O)Nc2ccc(OC(F)F)cc2C)cccc1[N+](=O)[O-] [compound 17]	A (100)	D (79-50)		
CCCNC(=O)c1c(C(=O)Nc2cc(Cl)ccc2C)cccc1[N+](=O)[O-] [compound 18]	D (79-50)	A (100)		
CC(C)NC(=O)c1ccccc1C(=O)Nc1ccc(F)cc1 [compound 23]	A (100)	D (79-50)		
Cc1ccccc1NC(=O)c1ccccc1C(=O)NC(C)C [compound 24]	A (100)	D (79-50)		
CC(C)NC(=O)c1ccccc1C(=O)Nc1ccc(C(F)(F)F)cc1 [compound 25]	A (100)	A (100)		
CC(C)NC(=O)c1ccccc1C(=O)Nc1cccc(C(F)(F)F)c1 [compound 26]	A (100)	D (79-50)		
CC(C)NC(=O)c1ccccc1C(=O)Nc1cccc(Cl)c1Cl [compound 41]	A (100)	A (100)		
CC(C)NC(=O)c1ccccc1C(=O)Nc1ccc(C(F)(F)F)cc1Cl [compound 45]	A (100)	A (100)		
CC(C)NC(=O)c1ccccc1C(=O)Nc1ccc(C(F)(C(F)(F)F)C(F)(F)F)cc1Cl [compound 46]	A (100)	B (99-90)		
Cc1ccc(Cl)cc1NC(=O)c1ccccc1C(=O)NC(C)C [compound 51]	A (100)	A (100)		
Cc1ccc(F)cc1NC(=O)c1ccccc1C(=O)NC(C)C [compound 53]	A (100)	A (100)		
COCOc1ccc(NC(=O)c2ccccc2C(=O)NC(C)C)c(C)c1 [compound 69]	A (100)	A (100)		
CSCOc1ccc(NC(=O)c2ccccc2C(=O)NC(C)C)c(C)c1 [compound 70]	A (100)	A (100)		
Cc1cc(Oc2ccc(C(F)(F)F)cc2Cl)ccc1NC(=O)c1ccccc1C(=O)NC(C)C [compound 75]	A (100)	A (100)		
Cc1cc(OCc2ccc(Cl)cc2)ccc1NC(=O)c1ccccc1C(=O)NC(C)C [compound 76]	C (89-80)	B (99-90)		
CC(C)NC(=O)c1ccccc1C(=O)Nc1ccc2c(c1)nc(C(F)(F)F)n2C [compound 86]	B (99-90)	B (99-90)		
CCCCc1ccc(NC(=O)c2cccc(Cl)c2C(=O)NC(C)C)cc1 [compound 87]	A (100)	A (100)		
CC(C)NC(=O)c1c(Cl)cccc1C(=O)Nc1ccc(SC(F)F)cc1 [compound 98]	A (100)	C (89-80)		
CC(C)NC(=O)c1cccc(F)c1C(=O)Nc1ccc(C(F)(F)C(F)(F)C(F)(F)C(F)(F)F)cc1 [compound 536]				Insecticidal effect on rice leafroller (Test Example 3), judged grade [2]: A (100)
CCCCc1ccc(NC(=O)c2cccc([N+](=O)[O-])c2C(=O)NC(C)C)cc1 [compound 605]				Insecticidal effect on rice leafroller (Test Example 3), judged grade [2]: C (89-80)
CC(C)NC(=O)c1c(C(=O)Nc2cccc3c2CCC3)cccc1[N+](=O)[O-] [compound 735]				Insecticidal effect on rice leafroller (Test Example 3), judged grade [2]: D (79-50)
Cc1cc(Cl)ccc1NC(=O)c1cccc(C(F)(F)F)c1C(=O)NC(C)C [compound 758]				Insecticidal effect on rice leafroller (Test Example 3), judged grade [2]: A (100)
Cc1cc(OC(F)F)ccc1NC(=O)c1cccc(C(F)(F)F)c1C(=O)NC(C)C [compound 759]				Insecticidal effect on rice leafroller (Test Example 3), judged grade [2]: D (79-50)

SMILES	Insecticidal effect, Test Example 1 [1]	Insecticidal effect, Test Example 3 [2, 3]	Insecticidal effect, Test Example 3 [2, 4]	also measured
Cc1c(Cl)cccc1NC(=O)c1c(C(=O)NC(C)C)cccc1C(F)(F)F [compound 765]				Insecticidal effect on rice leafroller (Test Example 3), judged grade [2]: A (100)
Cc1cc(Br)ccc1NC(=O)c1cccc([S+](C)[O-])c1C(=O)NC(C)C (stereo not drawn) [compound 790]				Insecticidal effect on rice leafroller (Test Example 3), judged grade [2]: A (100)
Cc1cc(OC(F)F)ccc1NC(=O)c1c(SCC(F)(F)F)cccc1C(=O)NC(C)C [compound 798]				Insecticidal effect on rice leafroller (Test Example 3), judged grade [2]: A (100)
Cc1cc(OC(F)F)ccc1NC(=O)c1c(C(=O)NC(C)C)cccc1[S+]([O-])CC(F)(F)F (stereo not drawn) [compound 800]				Insecticidal effect on rice leafroller (Test Example 3), judged grade [2]: C (89-80)
Cc1cc(SC(F)(F)C(F)(F)F)ccc1NC(=O)c1c(I)cccc1C(=O)NC(C)C [compound 910]				Insecticidal effect on rice leafroller (Test Example 3), judged grade [2]: A (100)
CCCCCCNC(=O)c1cccc(I)c1C(=O)Nc1ccc(C(F)(F)C(F)(F)F)cc1C [compound 950]			C (89-80)	
Cc1cc(C(F)(F)C(F)(F)F)ccc1NC(=O)c1c(I)cccc1C(=O)NCCC(C)C [compound 1016]			A (100)	
CCC(C)CNC(=O)c1cccc(I)c1C(=O)Nc1ccc(C(F)(F)C(F)(F)F)cc1C (stereo not drawn) [compound 1027]			A (100)	
Cc1cc(C(F)(F)C(F)(F)F)ccc1NC(=O)c1c(I)cccc1C(=O)N(C(C)C)C(C)C [compound 1072]			A (100)	
CCN(CC)C(=O)c1cccc([N+](=O)[O-])c1C(=O)Nc1ccc(Cl)cc1C [compound 1138]			A (100)	
Cc1cc(C(F)(F)C(F)(F)F)ccc1NC(=O)c1c(I)cccc1C(=O)N1CC(C)CC(C)C1 (stereo not drawn) [compound 1140]			A (100)	
Cc1cc(OC(F)(F)F)ccc1NC(=O)c1cc(Cl)cc(Cl)c1C(=O)NC(C)C [compound 1224]			B (99-90)	
Cc1cc(C(F)(F)C(F)(F)F)ccc1NC(=O)c1cc(Cl)cc(Cl)c1C(=O)NC(C)C [compound 1225]			A (100)	
Cc1cc(C(F)(C(F)(F)F)C(F)(F)F)ccc1NC(=O)c1cc(Cl)cc(Cl)c1C(=O)NC(C)C [compound 1226]			A (100)	
COC(Oc1ccc(NC(=O)c2cccc(Cl)c2C(=O)NC(C)C)c(C)c1)=C(C(F)(F)F)C(F)(F)F [compound 1293]			A (100)	
Cc1cc(C#CC(C)(C)C)ccc1NC(=O)c1c(I)cccc1C(=O)NC(C)C [compound 1306]			A (100)	
Cc1cc(C(F)(F)C(F)(F)F)ccc1NC(=O)c1c(Cl)cccc1C(=O)NCc1ccccc1 [compound 1308]			C (89-80)	
Cc1cc(C(F)(F)C(F)(F)F)ccc1NC(=O)c1c(Cl)cccc1C(=O)NCc1ccccc1Cl [compound 1310]			B (99-90)	
Cc1cc(C(F)(F)C(F)(F)F)ccc1NC(=O)c1c(Cl)cccc1C(=O)NCc1ccc(Cl)cc1Cl [compound 1350]			A (100)	
Cc1cc(C(F)(F)C(F)(F)F)ccc1NC(=O)c1c(Cl)cccc1C(=O)NCCc1ccc(Cl)cc1 [compound 1361]			A (100)	
Cc1cc(C(F)(F)C(F)(F)F)ccc1NC(=O)c1c(Cl)cccc1C(=O)NC(CO)c1ccc(Cl)cc1 (stereo not drawn) [compound 1416]			A (100)	
Cc1cc(OC(F)F)ccc1NC(=O)c1cccc(I)c1C(=O)NCc1ccccc1Cl [compound 1432]			A (100)	
Cc1cc(C(F)(F)C(F)(F)F)ccc1NC(=O)c1c(Cl)cccc1C(=O)NC(C)(C)C#Cc1ccccc1 [compound 1480]				Insecticidal effect (Test Example 3), judged from mortality [2, 3]: A (100)
Cc1cc(OC(F)(F)F)ccc1NC(=O)c1c(I)cccc1C(=O)NC(C)(C)CO [compound 1520]				Insecticidal effect (Test Example 3), judged from mortality [2, 3]: A (100)
Cc1ccc(C#CC(C)(C)NC(=O)c2c(Cl)cccc2C(=O)Nc2ccc(C(F)(F)C(F)(F)F)cc2C)cc1 [compound 1570]				Insecticidal effect (Test Example 3), judged from mortality [2, 3]: A (100)
Cc1c(NC(=O)c2cccc(I)c2C(=O)NC(C)C)ccc(C(F)(F)C(F)(F)F)c1C [compound 1640]				Insecticidal effect (Test Example 3), judged from mortality [2, 3]: A (100)
Cc1cc(C(F)(F)C(F)(F)F)c(C)cc1NC(=O)c1cccc(I)c1C(=O)NC(C)C [compound 1655]				Insecticidal effect (Test Example 3), judged from mortality [2, 3]: A (100)
